Tests used:
[1] = biological target: T1, Tyrosine-protein kinase receptor UFO (Homo sapiens, UniProt P30530); assay: Inhibition of GST-tagged AXL (unknown origin) ([…] residues) using Axltide (CKKSRGDYMTMQJG-acid) peptide as substrate preincubated for 30 mins followed by substrate and ATP addition at Km concentration measured after 180 mins by RapidFire LC-MS analysis
T1 sequence (P30530 whole entry): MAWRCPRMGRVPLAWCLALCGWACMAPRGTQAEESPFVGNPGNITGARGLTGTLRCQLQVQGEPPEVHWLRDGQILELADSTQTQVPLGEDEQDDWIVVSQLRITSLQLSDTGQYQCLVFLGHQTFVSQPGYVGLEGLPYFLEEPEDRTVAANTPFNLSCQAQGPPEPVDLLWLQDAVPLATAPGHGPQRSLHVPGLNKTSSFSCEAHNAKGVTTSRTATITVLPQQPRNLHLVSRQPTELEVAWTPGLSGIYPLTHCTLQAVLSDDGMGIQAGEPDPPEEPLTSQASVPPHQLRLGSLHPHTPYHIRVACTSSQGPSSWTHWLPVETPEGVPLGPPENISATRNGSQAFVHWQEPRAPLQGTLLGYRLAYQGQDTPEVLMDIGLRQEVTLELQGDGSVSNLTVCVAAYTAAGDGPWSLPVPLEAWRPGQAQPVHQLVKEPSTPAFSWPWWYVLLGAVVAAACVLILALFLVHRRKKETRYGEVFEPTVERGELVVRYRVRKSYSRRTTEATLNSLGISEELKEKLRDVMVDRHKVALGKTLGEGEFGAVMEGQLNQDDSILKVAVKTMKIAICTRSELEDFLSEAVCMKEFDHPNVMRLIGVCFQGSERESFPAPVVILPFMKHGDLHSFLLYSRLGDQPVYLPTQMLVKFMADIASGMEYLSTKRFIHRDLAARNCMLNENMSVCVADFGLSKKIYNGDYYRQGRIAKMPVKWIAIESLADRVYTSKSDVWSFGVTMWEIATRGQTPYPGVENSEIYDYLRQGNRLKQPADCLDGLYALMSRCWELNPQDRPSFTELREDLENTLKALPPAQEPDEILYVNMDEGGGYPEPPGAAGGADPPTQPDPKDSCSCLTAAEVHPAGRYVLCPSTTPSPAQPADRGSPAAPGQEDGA

[2] = biological target: T2, Tyrosine-protein kinase receptor TYRO3 (Homo sapiens, UniProt Q06418); assay: Inhibition of GST-tagged Tyro3 (unknown origin) (453 to 890 residues) using Axltide (KKSRGDYMTMQIG-acid) peptide as substrate preincubated for 30 mins followed by substrate and ATP addition at Km concentration measured after 180 mins by RapidFire LC-MS analysis
T2 sequence (Q06418 whole entry): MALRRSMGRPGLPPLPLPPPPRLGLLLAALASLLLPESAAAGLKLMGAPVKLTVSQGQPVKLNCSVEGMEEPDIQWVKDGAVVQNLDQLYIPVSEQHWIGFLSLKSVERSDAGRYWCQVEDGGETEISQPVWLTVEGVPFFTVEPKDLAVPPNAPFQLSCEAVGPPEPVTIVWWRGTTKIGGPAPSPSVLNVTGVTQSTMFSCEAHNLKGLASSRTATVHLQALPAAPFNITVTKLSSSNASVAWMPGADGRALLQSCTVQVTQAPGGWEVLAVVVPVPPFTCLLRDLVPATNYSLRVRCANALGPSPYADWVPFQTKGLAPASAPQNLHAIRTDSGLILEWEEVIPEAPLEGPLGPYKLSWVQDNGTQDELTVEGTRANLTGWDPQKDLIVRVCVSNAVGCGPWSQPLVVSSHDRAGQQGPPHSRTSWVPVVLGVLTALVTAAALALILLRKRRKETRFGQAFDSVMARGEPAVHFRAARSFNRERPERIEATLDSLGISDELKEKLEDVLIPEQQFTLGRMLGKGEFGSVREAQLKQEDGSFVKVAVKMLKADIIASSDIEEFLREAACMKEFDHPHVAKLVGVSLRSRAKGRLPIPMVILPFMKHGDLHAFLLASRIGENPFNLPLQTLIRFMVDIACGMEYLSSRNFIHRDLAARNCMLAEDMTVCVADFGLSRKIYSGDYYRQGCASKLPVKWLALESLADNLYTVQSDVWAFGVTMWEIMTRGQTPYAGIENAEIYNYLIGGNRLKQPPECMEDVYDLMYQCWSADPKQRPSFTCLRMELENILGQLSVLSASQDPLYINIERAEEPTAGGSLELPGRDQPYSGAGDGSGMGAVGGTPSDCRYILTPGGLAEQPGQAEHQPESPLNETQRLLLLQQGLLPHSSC

[3] = species on record: Homo sapiens; assay: Selectivity ratio of pIC50 for His6/TEV fused-GST-tagged Flt3 (unknown origin) (H564 to S993 residues) to pIC50 for 6His/thrombin cleavage site-fused Avi-tagged dephosphorylated MER (unknown origin) (R528 to M999 residues)

| Structure (SMILES) | IC50 [1] [nM] | IC50 [2] [nM] | Ratio pIC50 [3] |
| --- | --- | --- | --- |
| CCn1c(-c2nnc(N(C)Cc3ccc4nccn4c3)o2)nc2ccccc21 | 39800 | 39800 |  |
| CNc1nc(OCC2CCC2)nc2c1ncn2Cc1c(F)cccc1F | 1580 | 3160 |  |
| COc1cc2ncnc(Nc3cnc(OCCC4CC4)nc3)c2cc1OCC1CCNCC1 | 3160 | 2000 |  |
| CN(Cc1ccc2nccn2c1)c1nnc(-c2ccc(-c3ccccc3Cl)cc2)o1 | 398 | 10000 |  |
| CN(Cc1ccc2nccn2c1)c1nnc(-c2ccc(OC3CCCC3)cc2)o1 | 3980 | 79400 |  |
| CN(Cc1ccc2nccn2c1)c1nnc(-c2ccc(-c3ccccc3Cl)nc2)o1 | 3160 | 20000 |  |
| C[C@@H]1CN(c2cnc(Nc3cc(F)c(OCC4CC4)c(F)c3)nc2NC2CCOCC2)CCN1 | 1580 | 251 |  |
| Cc1cc(N(C)C)ccc1-c1nnc(N(C)Cc2ccc3nccn3c2)o1 | 15800 | > 100000 |  |
| CN(Cc1ccc2nccn2c1)c1nnc(-c2ncc(C(F)(F)F)cc2Cl)o1 | > 100000 | > 100000 |  |

Further lines, results first:

| IC50 [1] [nM] | IC50 [2] [nM] | Ratio pIC50 [3] | Structure (SMILES) |
| --- | --- | --- | --- |
| 15.8 | 31.6 |  | CNC(=O)C[C@@H](NC(=O)[C@@H](CCc1ccccc1)NC(=O)c1c(C)noc1-c1snnc1C)c1ccc(C(F)(F)F)cc1 |
| 3.16 | 10 |  | Cc1c(C(=O)Nc2ccc(Oc3ccnc4[nH]cc(-c5ccccc5)c34)c(F)c2)c(=O)n(-c2ccc(F)cc2)n1C |
| 3.98 | 1000 |  | CNC(=O)c1sc(N2CC3CC2(CNC(=O)c2c[nH]c4ncc(C)cc24)C3)nc1C(F)(F)F |
| 25.1 | > 100000 |  | CNC(=O)c1sc(N2CC3CC2(CNC(=O)c2c[nH]c4ncc(C(F)(F)F)cc24)C3)nc1C(F)(F)F |
| 200 | 6310 |  | O=S(=O)(c1ccc(Nc2ncc(N3CCOCC3)c(Nc3ccccc3)n2)cc1)N1CCCCC1 |
| 398 | > 100000 |  | CN(Cc1ccc2c(c1)CCCO2)c1nnc(-c2ccc(-c3ccccc3Cl)cc2)o1 |
| 10 | 631 | > 60 | CNC(=O)c1sc(N2CC3CC2(CNC(=O)c2c[nH]c4ncc(Cl)cc24)C3)nc1C(F)(F)F |
| 10 | 2000 |  | CNC(=O)c1sc(N2CC3CC2(CNC(=O)c2c[nH]c4ncccc24)C3)nc1C(F)(F)F |
